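48-hour exposure; five concentrations; linearly interpolated endpoints. GI50 marks 50% less growth.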 Active and inactive are the calls of the source. Rule as the data show it: active = GI50 up to about 1.1 µM and inactive = higher.
What was measured:
Experiment in all cases: DTP human tumour cell line panel, 48 h
[1] = test system: SK-MEL-28
[2] = test system: MDA-N
[3] = test system: HCT-15
[4] = test system: HL-60
[5] = test system: UACC-257
[6] = test system: MDA-MB-435
[7] = test system: NCI-H23
[8] = test system: MOLT-4
[9] = test system: OVCAR-5
[10] = test system: NCI-H460
[11] = test system: HOP-62
[12] = test system: K562
[13] = test system: MCF7
[14] = test system: A498
[15] = test system: SF-539
[16] = test system: SNB-19
[17] = test system: Malme-3M
[18] = test system: A549
[19] = test system: NCI-H522
[20] = test system: HOP-92

| SMILES | GI50 [1] | GI50 [2] | GI50 [3] | GI50 [4] | GI50 [5] | GI50 [6] | GI50 [7] | GI50 [8] | GI50 [9] | GI50 [10] | GI50 [11] | GI50 [12] | GI50 [13] | GI50 [14] | GI50 [15] | GI50 [16] | GI50 [17] | GI50 [18] | GI50 [19] | GI50 [20] |
| --- | --- | --- | --- | --- | --- | --- | --- | --- | --- | --- | --- | --- | --- | --- | --- | --- | --- | --- | --- | --- |
| CN(Cc1cnc2nc(N)nc(N)c2n1)c1ccc(C(=O)NCCS(=O)(=O)O)cc1 | > 100 µM (inactive) | > 100 µM (inactive) | > 100 µM | > 100 µM (inactive) | > 100 µM (inactive) | > 100 µM (inactive) | > 100 µM (inactive) | > 100 µM (inactive) | > 100 µM (inactive) | > 100 µM (inactive) | > 100 µM (inactive) | > 100 µM (inactive) | > 100 µM (inactive) | > 100 µM (inactive) | > 100 µM (inactive) | > 100 µM (inactive) | > 100 µM (inactive) | > 100 µM (inactive) | > 100 µM (inactive) | – |
| COC(=O)NCCc1n[nH]c2c1C(=O)C=C(OC)C2=O | 20.1 µM (inactive) | 17.9 µM (inactive) | 28.4 µM | 16.6 µM (inactive) | 15 µM (inactive) | 14.6 µM (inactive) | 20 µM (inactive) | 19.9 µM (inactive) | 20.7 µM (inactive) | > 100 µM (inactive) | 20.9 µM (inactive) | 17.5 µM (inactive) | 27.2 µM (inactive) | – | 19.4 µM (inactive) | 21.3 µM (inactive) | 15.5 µM (inactive) | 46.7 µM (inactive) | 23.9 µM (inactive) | 21.5 µM (inactive) |
| O=C(NCc1cccc(C(F)(F)F)c1)c1cc2sccc2nc1C(F)(F)F | > 100 µM (inactive) | > 100 µM (inactive) | – | – | > 100 µM (inactive) | > 100 µM (inactive) | > 100 µM (inactive) | 82.2 µM (inactive) | > 100 µM (inactive) | – | 33.8 µM (inactive) | > 100 µM (inactive) | > 100 µM (inactive) | – | 63.7 µM (inactive) | 34.6 µM (inactive) | > 100 µM (inactive) | > 100 µM (inactive) | 62.7 µM (inactive) | 50.9 µM (inactive) |
| Nc1ccc2ccc(N3CCNCC3)nc2n1 | > 100 µM (inactive) | 75 µM (inactive) | 76.6 µM | 34 µM (inactive) | > 100 µM (inactive) | 49.7 µM (inactive) | 56.8 µM (inactive) | 32.4 µM (inactive) | 32.4 µM (inactive) | 44 µM (inactive) | 23.9 µM (inactive) | 50.8 µM (inactive) | 70 µM (inactive) | – | 71.3 µM (inactive) | 42.2 µM (inactive) | 38.9 µM (inactive) | > 100 µM (inactive) | 45.3 µM (inactive) | 46 µM (inactive) |
| Cc1[nH]c2ncn(Nc3ccccc3)c(=N)c2c1Cc1ccccc1 | – | 0.191 µM (active) | 4.34 µM | 1.73 µM (inactive) | 0.462 µM (active) | 0.491 µM (active) | 31.8 µM (inactive) | 35.6 µM (inactive) | 11.2 µM (inactive) | 14.3 µM (inactive) | 32.4 µM (inactive) | 0.0578 µM (active) | 5.45 µM (inactive) | 33 µM (inactive) | > 100 µM (inactive) | > 51.3 µM (inactive) | > 38.7 µM (inactive) | 1.48 µM (inactive) | – | 33.1 µM (inactive) |
| CN1CN(c2ccccc2)C2(CCN(CCCSc3ccccc3NC(=O)/C=C/c3ccccc3)CC2)C1=O | 2.11 µM (inactive) | 2.57 µM (inactive) | 6.92 µM | 3.95 µM (inactive) | 1.78 µM (inactive) | 2.61 µM (inactive) | 4.61 µM (inactive) | 2 µM (inactive) | 22.6 µM (inactive) | 4.05 µM (inactive) | 2.83 µM (inactive) | 3.85 µM (inactive) | 13 µM (inactive) | 2.75 µM (inactive) | 2.88 µM (inactive) | 5.27 µM (inactive) | 2.15 µM (inactive) | 6.93 µM (inactive) | 17.3 µM (inactive) | – |
| CC12CCC(CC1=O)C2(C)CCC(N)=O (configuration not stated) | > 100 µM (inactive) | > 100 µM (inactive) | > 100 µM | – | > 100 µM (inactive) | > 100 µM (inactive) | > 100 µM (inactive) | > 100 µM (inactive) | > 100 µM (inactive) | – | > 100 µM (inactive) | > 100 µM (inactive) | > 100 µM (inactive) | > 100 µM (inactive) | – | > 100 µM (inactive) | > 100 µM (inactive) | > 100 µM (inactive) | > 100 µM (inactive) | – |
| CCOP(=O)(OCC)/C(=C/c1ccccc1)CC(C)=O | > 100 µM (inactive) | > 100 µM (inactive) | > 100 µM | 22.1 µM (inactive) | > 100 µM (inactive) | > 100 µM (inactive) | > 100 µM (inactive) | > 100 µM (inactive) | > 100 µM (inactive) | > 100 µM (inactive) | > 100 µM (inactive) | > 100 µM (inactive) | > 100 µM (inactive) | > 100 µM (inactive) | > 100 µM (inactive) | > 100 µM (inactive) | > 100 µM (inactive) | > 100 µM (inactive) | – | > 100 µM (inactive) |
| CC(=O)N(C(C)=O)n1c(Cc2ccc(Cl)cc2)nn(C(C)=O)c1=O | > 100 µM (inactive) | > 100 µM (inactive) | > 100 µM | > 100 µM (inactive) | – | > 100 µM (inactive) | > 100 µM (inactive) | > 100 µM (inactive) | > 100 µM (inactive) | > 100 µM (inactive) | > 100 µM (inactive) | > 100 µM (inactive) | > 100 µM (inactive) | > 100 µM (inactive) | > 100 µM (inactive) | > 100 µM (inactive) | > 100 µM (inactive) | > 100 µM (inactive) | > 100 µM (inactive) | – |
| Cn1c2ccccc2c2cc(N3CCCC3)c3c(c21)C(=O)N(c1ccccc1)C3=O | > 100 µM (inactive) | > 100 µM (inactive) | > 100 µM | > 100 µM (inactive) | > 100 µM (inactive) | > 100 µM (inactive) | > 100 µM (inactive) | > 100 µM (inactive) | > 100 µM (inactive) | > 100 µM (inactive) | 60.8 µM (inactive) | > 100 µM (inactive) | 24.3 µM (inactive) | > 100 µM (inactive) | – | > 100 µM (inactive) | > 100 µM (inactive) | > 100 µM (inactive) | > 100 µM (inactive) | – |
| COC(=O)C1=C(O)C(C(=O)OC)[C@]2(O)[C@H](C(=O)OC)[C@H]1C[C@@H](c1ccc(OC)c(OC)c1)[C@H]2C(=O)OC (some centres not stated) | 19.2 µM (inactive) | 7.13 µM (inactive) | 14 µM | 7.83 µM (inactive) | 20.5 µM (inactive) | 11.3 µM (inactive) | 19.8 µM (inactive) | 17.5 µM (inactive) | 23.6 µM (inactive) | 14.7 µM (inactive) | 16.7 µM (inactive) | 13.6 µM (inactive) | 17.3 µM (inactive) | 18 µM (inactive) | 4.78 µM (inactive) | 14.6 µM (inactive) | – | 11.6 µM (inactive) | – | 21.2 µM (inactive) |
| Cc1c(CCN2CCOCC2)c(N2CCOCC2)n2c(nc3ccccc32)c1C#N | > 10 µM (inactive) | > 10 µM (inactive) | > 10 µM | > 10 µM (inactive) | > 10 µM (inactive) | > 10 µM (inactive) | > 10 µM (inactive) | > 10 µM (inactive) | > 10 µM (inactive) | > 10 µM (inactive) | > 10 µM (inactive) | > 10 µM (inactive) | > 10 µM (inactive) | 6.31 µM (inactive) | > 10 µM (inactive) | > 10 µM (inactive) | > 10 µM (inactive) | > 10 µM (inactive) | – | > 10 µM (inactive) |
| O=C1CSC(c2cccc(Cl)c2)N1c1c(O)c(Cl)cc(Br)c1Cl (configuration not stated) | > 100 µM (inactive) | 17.1 µM (inactive) | 15 µM | 25.8 µM (inactive) | 22.4 µM (inactive) | 17.1 µM (inactive) | 27.7 µM (inactive) | 23.6 µM (inactive) | > 100 µM (inactive) | > 100 µM (inactive) | > 100 µM (inactive) | 45.2 µM (inactive) | 15.6 µM (inactive) | > 100 µM (inactive) | 28.8 µM (inactive) | > 100 µM (inactive) | > 100 µM (inactive) | 53.3 µM (inactive) | – | 15.1 µM (inactive) |
| COC(=O)C(CCCCN)NC(=O)C(CCCCN)NC(=O)C(CCCCN)NC(C)=O.Cc1ccc(C(=O)Nc2ccc(S(=O)(=O)O)c3cc(S(=O)(=O)O)cc(S(=O)(=O)O)c23)cc1NC(=O)c1cccc(NC(=O)Nc2cccc(C(=O)Nc3cc(C(=O)Nc4ccc(S(=O)(=O)O)c5cc(S(=O)(=O)O)cc(S(=O)(=O)O)c45)ccc3C)c2)c1 | > 50 µM (inactive) | > 50 µM (inactive) | 18.6 µM | > 50 µM (inactive) | > 50 µM (inactive) | > 50 µM (inactive) | > 50 µM (inactive) | > 50 µM (inactive) | > 50 µM (inactive) | 48.9 µM (inactive) | – | > 50 µM (inactive) | > 50 µM (inactive) | > 50 µM (inactive) | > 50 µM (inactive) | > 50 µM (inactive) | – | > 50 µM (inactive) | – | > 50 µM (inactive) |
| Nc1nc2c(c(=O)[nH]1)N=C(COP(=O)(O)OP(=O)(O)O)CN2 | > 100 µM (inactive) | > 100 µM (inactive) | > 100 µM | > 100 µM (inactive) | > 100 µM (inactive) | > 100 µM (inactive) | > 100 µM (inactive) | > 100 µM (inactive) | > 100 µM (inactive) | – | > 100 µM (inactive) | > 100 µM (inactive) | > 100 µM (inactive) | > 100 µM (inactive) | > 100 µM (inactive) | > 100 µM (inactive) | > 100 µM (inactive) | > 100 µM (inactive) | > 100 µM (inactive) | – |

— ChEMBL document CHEMBL1201862, “PubChem BioAssay data set” (2004)
